Measurements: patent publication US20090186079A1, “Oral and overall health by negating the biological effects of bacterial lipids” (priority 2008, published 2009)

Tests used:
Assay type in all cases: cell-based
[1] = test system: Human primary gingival fibroblasts; assay: Detergent treatment of lipid-bearing surfaces, gingival fibroblast morphology; conditions: 0.1% detergent in PBS, 1 mL on PGDHC-coated wells, 4° C. overnight
Experimental: (§1) Tissue culture flasks coated with bacterial lipids were used as a model of lipid-coated biological surfaces. Human primary gingival fibroblasts were maintained in 10 mm dishes in Minimun Essential Medium (GIBCO Cat #10370) 90% with 10% heat-inactivated FCS, penicillin (100 U/ml) and streptomycin ([…]). The cells were plated onto the 6-well tissue culture plate with individual wells treated as indicated below and grown at 37° C. in a humidified atmosphere of 5% CO2 in air.
(§2) Lipid coating: The HPLC-purified P. gingivalis phosphoglycerol dihydroceramide (PGDHC) was dissolved in ethanol and added to the 6-well tissue culture plate (10 μg of lipid/well, 10.5 ng/mm^2). The solvent was allowed to evaporate in a laminar flow hood overnight leaving the lipid deposited on the culture well surface. Sham-coated control wells received only ethanol solvent.
Detergents: 3-[(3-Cholamidopropyl) dimethylammonio]-1-propanesulfonate (CHAPS), Sodium cholate (Cholate), and Tween-20 (Tween) were dissolved at the concentration of 0.1% in phosphate buffered saline (Gibco cat. 1490). 1 mL of freshly prepared […] was added to the wells coated with P. gingivalis phosphoglycerol dihydroceramide. 1 mL of PBS was added to phosphoglycerol dihydroceramide-coated well as a control. The plate was incubated at 4° C. overnight on a rocking platform.
Detergent treatment of uncoated wells had no effect on primary fibroblasts (data not shown).

[2] = test system: Human primary gingival fibroblasts; assay: Collagen coating of lipid-bearing surfaces, gingival fibroblast morphology
Experimental: as §1, with “24-well” for “6-well”
as §2, with “dihydroceramide” for “dihydroceramide (PGDHC)”, “24-well” for “6-well”, “(2” for “(10”
Collagen coating: 0.5 mL of 50 μg/mL collagen dissolved in 0.02N Acetic acid was added to the 24-well tissue culture plate, and incubated at 4° C. overnight on a rocking platform. The collagen solution was aspirated, and the wells were washed with PBS.
The treatments were done in triplicate.

[3] = test system: peripheral blood monocytes; assay: Morphological changes in peripheral blood monocytes on lipid-coated wells; conditions: treated with 1 μg/mL lipopolysaccharide, 26 hours
Experimental: Tissue culture flasks coated with bacterial lipids were used as a model of lipid-coated biological surfaces. The HPLC-purified P. gingivalis lipids were dissolved in ethanol and added to the tissue culture plate. The solvent was allowed to evaporate in a laminar flow hood overnight leaving the lipid deposited on the culture well surface. Sham-coated control wells received only ethanol solvent.
Peripheral blood monocytes were plated into 6-well culture dishes previously coated with the indicated lipid fractions (10 μg of lipid/well, 10.5 ng/mm^2) and were incubated for 26 hours. Culture (a) was the sham coating control, (b) was coated with the total lipid extract of P. gingivalis, (c) was coated with the P. gingivalis dihydroceramide fraction, (d) was coated with the phosphoethanolamine lipids and (e) was coated with the phosphoethanolamine dihydroceramide lipid fraction, (f) was treated with 1 μg/mL Salmonella typhimurium lipopolysaccharide.

Compound	negation of the biological effect of surface-deposited PGDHC [1]	also measured
C[C@H](CCC(=O)NCCC[N+](C)(C)CCCS(=O)(=O)[O-])[C@H]1CC[C@H]2[C@@H]3[C@H](O)C[C@@H]4C[C@H](O)CC[C@]4(C)[C@H]3C[C@H](O)[C@]12C [CHAPS, 3-[(3-Cholamidopropyl)dimethylammonio]-1-propanesulfonate]	negated the biological effect of bacterial lipid	
C[C@H](CCC(=O)[O-])[C@H]1CC[C@H]2[C@@H]3[C@H](O)C[C@@H]4C[C@H](O)CC[C@]4(C)[C@H]3C[C@H](O)[C@]12C.[Na+] [sodium cholate, Sodium cholate]	negated the biological effect of bacterial lipid	
collagen		effect of coating alone on primary fibroblasts ([2]; 0.5 mL of 50 μg/mL collagen, wells without lipid): did not have any effect; blocking of the biological effect of surface-deposited phosphoglycerol dihydroceramide ([2]; collagen coated on top of PGDHC (2 μg of lipid/well, 10.5 ng/mm^2)): blocked the biological effect
lipopolysaccharide		cell clustering of monocytes [3]: did not produce similar cell clustering
polyoxyethylene(20) sorbitan monolaurate [Tween-20]	negated the biological effect of bacterial lipid	
